Test results as given in patent publication US20230045509A1, “PHARMACEUTICAL COMPOSITIONS COMPRISING CABOTEGRAVIR” (ViiV Healthcare Company, priority 2019, published 2023).

Experiments:
HIV-1 strains = conditions: integrase strand transfer inhibitor; background statement; cited from earlier work
[1] = Wettability study to define limits of cabotegravir suspension strength; format: physicochemical
Protocol: Wettability of Cabotegravir in 38 mg/mL P338, 35 mg/mL PEG3350, and 20 mg/mL mannitol was assessed to estimate the approximate concentration limit for Cabotegravir suspension in this vehicle. This was performed by adding increasing amounts of Cab to 5 g of vehicle until a gross change in coarse suspension properties was observed.

C[C@H]1CO[C@@H]2Cn3cc(C(=O)NCc4ccc(F)cc4F)c(=O)c(O)c3C(=O)N12 [Cabotegravir, N-((2,4-Difluorophenyl)methyl)-6-hydroxy-3-methyl-5,7-dioxo-2,3,5,7,11,11a hexahydro(1,3)oxazolo(3,2-a)pyrido(1,2-d)pyrazine-8-carboxamide]
potency (HIV-1 strains): subnanomolar potency | Gross viscosity ([1]; 580† mg/mL Cabotegravir (calculated using approximated densities) in same vehicle): Boundary of thickening | Gross viscosity ([1]; 600† mg/mL Cabotegravir (calculated using approximated densities) in same vehicle): Thicker, but flowable | Gross viscosity ([1]; 635† mg/mL Cabotegravir (calculated using approximated densities) in same vehicle): Slightly paste-like | upper boundary of Cabotegravir solid suspension concentration ([1]; vehicle 38 mg/mL P338, 35 mg/mL PEG3350, 20 mg/mL mannitol): ≤ 600 mg/mL
